Measurements: paper PMC5562545 (Journal of molecular biology, 2017)

Biological target: WT PA channel (Bacillus anthracis, UniProt P13423)
Assay type: biochemical

Sequence of WT PA channel (P13423 197-764 limits assumed): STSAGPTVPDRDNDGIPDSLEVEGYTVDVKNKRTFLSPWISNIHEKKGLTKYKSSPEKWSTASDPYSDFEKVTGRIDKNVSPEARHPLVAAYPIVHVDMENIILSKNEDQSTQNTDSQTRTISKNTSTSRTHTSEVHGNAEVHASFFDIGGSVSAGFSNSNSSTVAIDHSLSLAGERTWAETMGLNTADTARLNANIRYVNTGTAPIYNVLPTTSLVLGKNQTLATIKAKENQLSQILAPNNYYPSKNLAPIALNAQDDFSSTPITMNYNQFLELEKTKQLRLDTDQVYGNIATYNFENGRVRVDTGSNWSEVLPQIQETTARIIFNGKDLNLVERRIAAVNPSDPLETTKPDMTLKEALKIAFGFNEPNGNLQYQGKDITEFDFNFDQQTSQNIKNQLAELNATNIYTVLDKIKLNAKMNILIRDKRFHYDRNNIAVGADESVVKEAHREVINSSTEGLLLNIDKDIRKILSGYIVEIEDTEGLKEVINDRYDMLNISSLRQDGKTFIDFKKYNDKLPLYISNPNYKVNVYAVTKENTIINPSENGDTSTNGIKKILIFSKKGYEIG

Row | Substance | duration of the I2/B oscillation among guest–host peptides | oscillation between conductance states during translocation | relative rate of dissociation to the cis side (in words) (pH 5.6) | translocation (in words) (pH 5.6) | translocation faster than D,L-Trp and D-Trp peptides (pH 5.6) | translocation faster than the HBS stapled peptide (pH 5.6) | dissociation to the cis side slower than L-Trp (pH 5.6) | translocation slower than L-Trp (pH 5.6)
1 | L-Trp | longest durations | exhibited an oscillation between the I2 and B | dissociated the fastest | translocated the fastest | 10 fold | ~ 100 fold |  | 
2 | D-Trp |  |  | dissociated the slowest |  |  |  | ~ 20 fold | ~ 10 fold
